# Laboratory results: US20220202929A1, “DRUG-RESISTANT INFLUENZA VIRUS STRAINS” (President and Fellows of Harvard College, priority 2019, published 2022)
# Assays:
# Type in all cases: cell-based, influenza A virus
# [1] = test system: M2 S31N mutant influenza virus strain
# [2] = test system: M2 S31N/G34E mutant influenza virus strain
# [3] = test system: M2 S31N/L46P mutant influenza virus strain
# [4] = test system: NA-H274Y mutant influenza virus strain
SMILES,IC50 [1],IC50 [2],IC50 [3],IC50 [4]
NC12CC3CC(CC(C3)C1)C2 [amantadine],24.7 µM,> 100 µM,65.9 µM,
CCOC(=O)C1=C[C@@H](OC(CC)CC)[C@H](NC(C)=O)[C@@H](N)C1 [oseltamivir],,,,2.67 µM
